Patent US9808434B2, “Compound for treating cancer and diabetes” (CITY OF HOPE, priority 2011, dated 2017)

How the values were obtained:
PBT028 = assay: Glioma ATP viability assay, PBT028; format: cell-based; settings: Table 1; 72 hours
Method: (§1) Cells of each cell line (U251, U87, PBT-017, PBT018, PBT003 and PBT028) were treated with various concentrations (0˜100 μM) of COH-SR4 for 72 hours. Cell viabilities were determined by ATP viability assays. Data were represented as a ratio to vehicle (DMSO) control, and plotted as mean±SEM (n=12) obtained from 2˜3 experiments (FIG. 34A).

A2058 cells = assay: Mitochondrial membrane depolarization, TMRE; format: cell-based, human; settings: 5 μM
Method: Cells (4×10^5/well in 6-well plates) cultured overnight were pre-incubated with the fluorescent indicator of MMP tetramethylrhodamine ester (TMRE, 200 nM) or DMSO control for 30 min at 37° C. in CO2 incubator. Cells were washed with pre-warmed normal DMEM media, and test compounds were added with fresh media for the indicated times. Cells were then trypsinized, collected, centrifuged for 5 min at 800×g, and washed once in pre-warmed PBS-0.2% BSA. Cells were then resuspended in the same buffer prior to flow cytometric analysis. A total of 30,000 cells were counted per sample and data was analyzed by Cyan ADP flow cytometer with excitation/emission of 488 nm/572 nm (Beckman Coulter, Inc., Brea, Calif.). For measurements of membrane potential in isolated mouse liver mitochondria, the organelles were pre-incubated with 200 nM TMRE in MASSRO buffer (MAS buffer supplemented with 10 mM succinate, 1 μM rotenone, and 1 μM oligomycin) for 20 min at 25° C. The mitochondria were centrifuged for 5 min at 3000×g and resuspended in MASSRO buffer. Mitochondria were then added to MASSRO buffer containing the indicated concentrations of COH-SR4, FCCP or DMSO vehicle control and incubated at room temperature for 15 min. […] TMRE fluorescence was measured with a microplate reader (Tecan Infinite M200 Pro, Tecan Group Ltd., Switzerland) using an excitation emission of 545ex/580em. […]

B16-F0 = assay: MTT assay, B16-F0; format: cell-based; settings: Mus musculus
Method: (§2) Cell density measurements were performed using a hemocytometer to count reproductive cells resistant to staining with trypan blue. Approximately 20,000 cells were plated into each well of 96-well flat-bottomed micro-titer plates. After 12 h or 24 h incubation at 37° C., medium containing either COH-SR4 (ranging 0-200 μM) or elesclomol (ranging 0-20 μM) were added to the cells. After 24 h, 48 h or 96 h incubation, 20 μL of 5 mg/mL MTT were introduced to each well and incubated for 2 h. The plates were centrifuged and medium was decanted. Cells were subsequently dissolved in 100 μl DMSO with gentle shaking for 2 h at room temperature, followed by measurement of OD570 (91).
Cells of highly aggressive mouse melanoma cell line B16-F0 or human melanoma cell line Hs600T were incubated with various doses of COH-SR4 (1, 2.5, 5, 10, 25, 50, or 100 μM). The cell viabilities after treatment of 48 hours and 96 hours were measured and summarized in FIGS. 54A and 55A, respectively. […] Data were presented as mean±Standard Deviation from two separate determinations with eight replicate each (n=16).

GST = assay: Total GST activity towards CDNB in H358 tumor tissue lysates; format: in vivo; settings: n=3; control 0.32±0.03
Description: The effect of COH-SR4 on signaling pathways of relevance to lung cancer progression was further analyzed by Western-blots of lysates from resected tumors (as described in Example 31). GAPDH was used as internal control. The bar diagrams (FIG. 82B) represent the fold change in the levels of proteins as compared to the controls as determined by densitometry. Dotted line represents no significant change observed when compared to the controls. The COH-SR4 treated groups had high levels of cleaved-PARP compared to the untreated controls, which reinforces the finding of apoptotic effect as observed in-vitro by TUNEL assay. Akt is a signaling protein that transduces the proliferative signals from upstream integrins and growth factor receptors. The COH-SR4 treatments increased the levels of PARP cleavage along with decreased levels of pAkt (S^473). […] In accordance with decreased levels of pAkt (S^473), the levels of pP70S6K were decreased in COH-SR4 treated groups compared to controls. […] COH-SR4 treated tumor tissue lysates were analyzed to test the impact of long term COH-SR4 treatment in vivo on GST expression and activity. […] The total GST activity as measured by activity towards CDNB as a substrate, in COH-SR4 treated tumor tissue lysates was lower compared to the controls [control, 0.32±0.03 U/mg protein; COH-SR4 treated, 0.21±0.05 U/mg protein; (n=3)]. […]

A2058 = assay: MTT assay, A2058; format: cell-based; settings: Homo sapiens, A2058, 96 h
Method: as §2

human VEGF promoter = assay: VEGF promoter luciferase reporter in U251; format: cell-based; settings: U251, 1 or 3 μM, 24 hours
Method: U251 cells expressing luciferase reporter containing human VEGF promoter were incubated with various concentrations of COH-SR4 (0, 1, or 3 μM) for 24 hours. Luciferase activity was determined and normalized to the cell number for each treatment. Data were represented as a ratio to vehicle control that was treated by DMSO.

PBT003 = assay: Glioma ATP viability assay, PBT003; format: cell-based; settings: Table 1; 72 hours
Method: as §1
as §1, with “(U87, U251,” for “(U251, U87, PBT-017, PBT018,”, “PVT-017)” for “PBT028)”, “2-3” for “2˜3”, “34B).” for “34A).”

[1] = tested on: SKOV3, MADH2744 and A2780 DPPr cells; assay: Ovarian cancer cell viability, cellular acid phosphatase activity; format: cell-based, human; settings: 48 hours, 0-10 μM
Method: SKOV3 is a cisplatin resistant human ovarian cancer cell line. Human ovarian cancer cells (SKOV3, MADH2744, and […]) were incubated with COH-SR4 at various concentrations (0˜10 μM) or without COH-SR4 for 48 hours. Cells Viabilities were determined by measuring cellular acid phosphatase activities. Data were represented as a ratio to vehicle (DMSO) control.

**Q.** `O=C(Nc1cc(Cl)cc(Cl)c1)Nc1cc(Cl)cc(Cl)c1` [COH-SR4, 1,3-bis(3,5-dichlorophenyl) urea] was tested. Which IC50 (PBT028) did it give?
**A.** The IC50 was 2 µM.

**Q.** And the “mitochondrial membrane depolarization (TMRE fluorescence)” value (A2058 cells)?
**A.** Its value is “induced mitochondrial membrane depolarization in a time-dependent manner”.

**Q.** What about the IC50 (B16-F0; B16F0, 48 h, 48 hours) of the same compound?
**A.** Its IC50 is about 14 µM.

**Q.** And the IC50 (B16-F0; B16F0, 96 h, 96 hours)?
**A.** The IC50 was about 5 µM.

**Q.** What about the “total GST activity towards CDNB” value (GST) of the same compound?
**A.** The value was 0.21±0.05 U/mg protein.

**Q.** What about the IC50 (A2058) of the same compound?
**A.** Its IC50 is 11 ± 2 µM.

**Q.** And the “luciferase expression (VEGF promoter)” value (human VEGF promoter)?
**A.** The value was “inhibited luciferase expression of VEGF protein”.

**Q.** What about the IC50 (PBT003) of the same compound?
**A.** The IC50 was 1.5 µM.

**Q.** And the “cytotoxicity on regular and cisplatin-resistant ovarian cancer cells” value [1]?
**A.** The value was “dose-dependent cytotoxicity and anti-proliferative effects”.
